# Like-named read-outs stand apart in the source and are kept apart here.
# Biological target: human α7 nAChR (Homo sapiens, UniProt P36544)
# Experiment: Automated patch-clamp electrophysiology functional assay (Assay A)
# Assay type: cell-based
# Conditions: IonFlux HT whole-cell population patch, HEK cell line stably expressing human RIC-3 and human α7, 40 μM acetylcholine
# Procedure: The α7 nAChR positive allosteric modulator (PAM) activity of the present compounds may be tested using assays known in the art. […] The assay was performed using the IonFlux HT in a whole-cell, population patch configuration. See Golden et al. Assay Drug Dev. Technol. (2011) 9:608-619. The compounds were assessed for their ability to modulate the function of the human α7 nAChR stably expressed in a HEK cell line both in the presence, and in the absence of the natural α7 agonist acetylcholine. By performing a series of such measurements at different concentrations, the effective concentration of the α7 nAChR PAMs (EC50) was determined. See Spencer et al. Assay Drug Dev. Technol. (2012) 10:313-324.
# Direct activation of α7 (agonism), and potentiation of acetylcholine-evoked α7 currents was determined as follows:
# Automated Patch-Clamp Electrophysiology Functional Assay (Assay A)
# Automated patch-clamp electrophysiology was performed using the IonFlux HT (Fluxion Biosciences Inc., San Francisco, Calif.) in the whole-cell, population patch configuration. Test compounds were assessed for their ability to modulate the function of the α7 nicotinic acetylcholine receptor both in the presence, and in the absence of the natural α7 agonist acetylcholine. A HEK cell line stably expressing both human RIC-3 and human α7 (PrecisION hnAChR α7/RIC-3, Eurofins Pharma, St. Charles, Mo.) was cultured in 175 cm^2 triple-layer tissue culture flasks to no more than 90% confluency in DMEM/F-12 growth media supplemented with 10% heat-inactivated fetal bovine serum, 1% non-essential amino acids, 0.625 μg/mL Puromycin, and 400 μg/mL Geneticin. Immediately prior to assay, cells were detached by first aspirating growth media, rinsing with Dulbecco's phosphate buffered saline, and then adding 10 mL of Accutase (Innovative Cell Technologies, San Diego, Calif.) to the flask and then incubating at 37° C. for 5 minutes. Detached cells were then recovered by the addition of 40 mL of CHO-serum-free media supplemented with 25 mM HEPES, and rocked gently in a 50 mL conical tube for 20 minutes prior to patch-clamp assay. […] The cell suspension was added to the cell inlet wells on an IonFlux HT population patch plate which had previously been rinsed and primed with deionized H2O. Test compounds were serially diluted in DMSO and then resuspended to the final test concentration in external recording solution, with, or without 40 μM acetylcholine added to the external recording solution; test compounds were then transferred to the lonFlux HT population patch plate. Internal recording solution (110 mM TrisPO4, 28 mM TrisBase, 0.1 mM CaCl2, 2 mM MgCl2, 11 mM EGTA, 4 mM MgATP) was added to the internal recording solution inlet wells on the IonFlux HT patch plate previously loaded with cells and test compounds, and the plate loaded into the IonFlux HT instrument. A protocol was executed on the IonFlux HT to trap the cells, break into the cells, and establish the whole-cell recording configuration; cells were voltage-clamped at a holding potential of −60 mV for the duration of the experiment, all experiments were conducted at room temperature, and the IonFlux HT injection pressure was 8 psi for solution applications. Upon establishing the whole-cell configuration, external recording solution was perfused into the recording chambers for 120 seconds and then 40 μM acetylcholine was applied for 1 second and immediately washed off with external recording solution for 60 seconds. The 40 μM acetylcholine-evoked α7 current served as the current response to which subsequent test compound effects, in the presence, or in the absence of 40 μM acetylcholine would be quantified relative to. Next, test compounds were evaluated at multiple concentrations for their ability to induce, or modulate α7 current responses; three concentrations of test compound were evaluated in ascending dose fashion per recording.
# Chain of human α7 nAChR (P36544 23-502): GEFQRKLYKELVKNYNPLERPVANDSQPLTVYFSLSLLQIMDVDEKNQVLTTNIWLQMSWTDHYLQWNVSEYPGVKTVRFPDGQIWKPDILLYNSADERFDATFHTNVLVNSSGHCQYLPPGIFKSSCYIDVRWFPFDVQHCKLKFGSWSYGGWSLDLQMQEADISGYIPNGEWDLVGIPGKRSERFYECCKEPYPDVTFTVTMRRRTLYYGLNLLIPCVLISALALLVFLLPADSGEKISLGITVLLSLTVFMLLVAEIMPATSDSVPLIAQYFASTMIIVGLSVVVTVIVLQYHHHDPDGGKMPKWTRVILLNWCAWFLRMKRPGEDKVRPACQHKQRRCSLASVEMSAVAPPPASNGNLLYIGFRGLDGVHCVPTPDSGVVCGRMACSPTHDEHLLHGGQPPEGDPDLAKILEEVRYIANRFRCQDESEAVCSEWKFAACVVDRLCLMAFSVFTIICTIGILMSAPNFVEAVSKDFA
Molecule,EC50 (read-out: α7 nAChR EC50),EC50 (read-out: α7 nAChR Potency)
"6-[trans-3-(1,3-Benzoxazol-2-yl)-2,2-dimethylcyclopropyl]pyridine-3-sulfonamide [Example G1]",0.9 µM,0.5 to 5 µM
"CC1(C)[C@@H](c2ccc(S(N)(=O)=O)nc2)[C@@H]1c1noc(-c2c(F)ccc(F)c2F)n1 (racemic) [Example C1, 5-{trans-2,2-Dimethyl-3-[5-(2,3,6-trifluorophenyl)-1,2,4-oxadiazol-3-yl]cyclopropyl}pyridine-2-sulfonamide]",0.58 µM,0.5 to 5 µM
"CC1(C)[C@@H](c2ccc(S(N)(=O)=O)nc2)[C@@H]1c1noc(C2CCCC2)n1 (racemic) [Example C2, 5-[trans-3-(5-Cyclopentyl-1,2,4-oxadiazol-3-yl)-2,2-dimethylcyclopropyl]pyridine-2-sulfonamide]",0.92 µM,0.5 to 5 µM
"CC1(C)C(c2ccc(S(N)(=O)=O)nc2)C1c1nc2ccccc2o1 (racemic) [Example C4, 5-[trans-3-(1,3-Benzoxazol-2-yl)-2,2-dimethylcyclopropyl]pyridine-2-sulfonamide]",5.1 µM,5 to 50 µM
"CC1(C)[C@@H](c2ccc(S(N)(=O)=O)nc2)[C@@H]1c1noc(C2CCCCC2)n1 (racemic) [Example C10, 5-[trans-3-(5-Cyclohexyl-1,2,4-oxadiazol-3-yl)-2,2-dimethylcyclopropyl]pyridine-2-sulfonamide]",2.1 µM,0.5 to 5 µM
"CC1(C)[C@@H](c2ccc(S(N)(=O)=O)nc2)[C@@H]1c1noc(C2(C(F)(F)F)CC2)n1 (racemic) [Example C11, 5-(trans-2,2-Dimethyl-3-{5-[1-(trifluoromethyl)cyclopropyl]-1,2,4-oxadiazol-3-yl}cyclopropyl)pyridine-2-sulfonamide]",1.5 µM,0.5 to 5 µM
"CC1(C)[C@@H](c2nc3ccccc3o2)[C@@H]1c1ncc(S(N)(=O)=O)s1 (racemic) [Example D1, 2-[trans-3-(1,3-Benzoxazol-2-yl)-2,2-dimethylcyclopropyl]-1,3-thiazole-5-sulfonamide]",2 µM,0.5 to 5 µM
"CC1(C)[C@@H](c2nc(C3CCC3)no2)[C@@H]1c1ncc(S(N)(=O)=O)s1 (racemic) [Example D2, 2-[trans-3-(3-Cyclobutyl-1,2,4-oxadiazol-5-yl)-2,2-dimethylcyclopropyl]-1,3-thiazole-5-sulfonamide]",1.2 µM,0.5 to 5 µM
"CC1(C)[C@@H](c2nc(-c3cncc(F)c3)no2)[C@@H]1c1ncc(S(N)(=O)=O)s1 (racemic) [Example D3, 2-{trans-3-[3-(5-Fluoropyridin-3-yl)-1,2,4-oxadiazol-5-yl]-2,2-dimethylcyclopropyl}-1,3-thiazole-5-sulfonamide]",1.6 µM,0.5 to 5 µM
"CC1(C)[C@@H](c2nc(-c3ccccc3)no2)[C@@H]1c1ncc(S(N)(=O)=O)s1 (racemic) [Example D4, 2-[trans-2,2-Dimethyl-3-(3-phenyl-1,2,4-oxadiazol-5-yl)cyclopropyl]-1,3-thiazole-5-sulfonamide]",0.36 µM,0.1 to 0.5 µM
"CC(C)c1noc([C@H]2[C@H](c3ncc(S(N)(=O)=O)s3)C2(C)C)n1 (racemic) [Example D5, 2-{trans-2,2-Dimethyl-3-[3-(propan-2-yl)-1,2,4-oxadiazol-5-yl]cyclopropyl}-1,3-thiazole-5-sulfonamide]",4.2 µM,0.5 to 5 µM
"CC1(C)[C@@H](c2nc(C3CC(F)(F)C3)no2)[C@@H]1c1ncc(S(N)(=O)=O)s1 (racemic) [Example D6, 2-{trans-3-[3-(3,3-Difluorocyclobutyl)-1,2,4-oxadiazol-5-yl]-2,2-dimethylcyclopropyl}-1,3-thiazole-5-sulfonamide]",,5 to 50 µM
"COc1ccc(Cl)cc1-c1noc([C@H]2[C@H](c3ncc(S(N)(=O)=O)s3)C2(C)C)n1 (racemic) [Example D7, 2-{trans-3-[3-(5-Chloro-2-methoxyphenyl)-1,2,4-oxadiazol-5-yl]-2,2-dimethylcyclopropyl}-1,3-thiazole-5-sulfonamide]",1.2 µM,0.5 to 5 µM
"CC1(C)[C@@H](c2ccc(S(N)(=O)=O)cn2)[C@@H]1c1nc(-c2ccccc2)no1 (racemic) [Example G2, 6-[trans-2,2-Dimethyl-3-(3-phenyl-1,2,4-oxadiazol-5-yl)cyclopropyl]pyridine-3-sulfonamide]",0.97 µM,0.5 to 5 µM
"CC(C)c1noc([C@H]2[C@H](c3ccc(S(N)(=O)=O)cn3)C2(C)C)n1 (racemic) [Example G3, 6-{trans-2,2-Dimethyl-3-[3-(propan-2-yl)-1,2,4-oxadiazol-5-yl]cyclopropyl}pyridine-3-sulfonamide]",,0.5 to 5 µM
"CC1(C)[C@@H](c2ccc(S(N)(=O)=O)cn2)[C@@H]1c1nc(C2CCC2)no1 (racemic) [Example G4, 6-[trans-3-(3-Cyclobutyl-1,2,4-oxadiazol-5-yl)-2,2-dimethylcyclopropyl]pyridine-3-sulfonamide]",,0.5 to 5 µM
"CC1(C)[C@@H](c2ccc(S(N)(=O)=O)cn2)[C@@H]1c1nc(C2CC(F)(F)C2)no1 (racemic) [Example G5, 6-{trans-3-[3-(3,3-Difluorocyclobutyl)-1,2,4-oxadiazol-5-yl]-2,2-dimethylcyclopropyl}pyridine-3-sulfonamide]",3.6 µM,0.5 to 5 µM

# Continued, values first:
EC50 (read-out: α7 nAChR EC50),EC50 (read-out: α7 nAChR Potency),Molecule
0.43 µM,0.1 to 0.5 µM,"CC1(C)C(c2ccc(S(N)(=O)=O)nc2)C1c1cc(-c2cccc(F)c2)no1 (racemic) [Example C3, 5-{trans-3-[3-(3-Fluorophenyl)isoxazol-5-yl]-2,2-dimethylcycpropyl}pyridine-2-sulfonamide]"
1.1 µM,0.5 to 5 µM,"NS(=O)(=O)c1ccc(C2CC2c2nc(-c3ccccc3)no2)cn1 (racemic) [Example C5, 5-[trans-2-(3-Phenyl-1,2,4-oxadiazol-5-yl)cyclopropyl]pyridine-2-sulfonamide]"
,0.5 to 5 µM,"CC1(C)[C@@H](c2ccc(S(N)(=O)=O)nc2)[C@@H]1c1nc(-c2ccccc2)no1 (racemic) [Example C6, 5-[trans-2,2-Dimethyl-3-(3-phenyl-1,2,4-oxadiazol-5-yl)cyclopropyl]pyridine-2-sulfonamide]"
0.39 µM,0.1 to 0.5 µM,"NS(=O)(=O)c1ccc([C@@H]2C[C@H]2c2nc(-c3cccc(F)c3)no2)cn1 (racemic) [Example C8, 5-{trans-2-[3-(3-Fluorophenyl)-1,2,4-oxadiazol-5-yl]cyclopropyl}pyridine-2-sulfonamide]"
,0.5 to 5 µM,"NS(=O)(=O)c1ccc([C@@H]2C[C@H]2c2nc(C3CCCC3)no2)cn1 (racemic) [Example C9, 5-[trans-2-(3-Cyclopentyl-1,2,4-oxadiazol-5-yl)cyclopropyl]pyridine-2-sulfonamide]"
1.2 µM,0.5 to 5 µM,"CC1(C)[C@@H](c2ccc(S(N)(=O)=O)nc2)[C@@H]1c1noc(-c2c(F)cccc2F)n1 (racemic) [Example C12, 5-{trans-3-[5-(2,6-Difluorophenyl)-1,2,4-oxadiazol-3-yl]-2,2-dimethylcyclopropyl}pyridine-2-sulfonamide]"
1 µM,0.5 to 5 µM,"NS(=O)(=O)c1cnc([C@@H]2C[C@H]2c2nc(-c3ccccc3)no2)s1 (racemic) [Example D8, 2-[trans-2-(3-Phenyl-1,2,4-oxadiazol-5-yl)cyclopropyl]-1,3-thiazole-5-sulfonamide]"
1.3 µM,0.5 to 5 µM,"NS(=O)(=O)c1ccc([C@@H]2C[C@H]2c2nc(-c3ccccc3)no2)nc1 (racemic) [Example G6, 6-[trans-2-(3-Phenyl-1,2,4-oxadiazol-5-yl)cyclopropyl]pyridine-3-sulfonamide]"

# From US11198687B2, “Heteroaryl allosteric modulators of nicotinic acetylcholine receptors” (Merck Sharp & Dohme Corp., priority 2017, dated 2021)
